What all share (type): cell-based, murine
In experiment [1] the test system is cPLA2 in NB4 1A3 neuroblastoma cells.
In experiment [2] the test system is COX-1 in NB4 1A3 neuroblastoma cells.
The next experiment has as its system NB4 neuroblastoma cells.
The subject of experiment [3] is NB4 1A3 neuroblastoma cells.
The subject of experiment [4] is NB4 1A3 neuroblastoma cells. The source holds these as a separate data set.
The test system of experiment [5] is NB4 1A3 neuroblastoma cells. The source holds these as a separate data set.
For experiment [6], the system named is NB4 1A3 neuroblastoma cells. To be noted: n = 6.

On to “1-O-alkyl-2-acetyl-sn-glycerol-3-phospho-(N,N,N-trimethyl)-hexanolamine [Hexa-PAF]”, for which, in experiment [1], the “% of MoPrP105-132 co-localised with cPLA2 in Hexa-PAF-treated cells” value is reported as 22% ± 6. Also, in experiment [2], the “% of MoPrP105-132 co-localised with COX-1 in Hexa-PAF-treated cells” value was 13% ± 3.

On to `C=C(CC[C@]12O[C@H](C(=O)O)[C@@](O)(C(=O)O)[C@](C(=O)O)(O1)[C@H](OC(=O)/C=C/[C@@H](C)C[C@@H](C)CC)[C@H]2O)[C@@H](OC(C)=O)[C@H](C)Cc1ccccc1` [Squalestatin, squalestatin], for which, in the experiment on NB4 neuroblastoma cells, the “effect of squalestatin treatment on MoPrP105-132 induced neurotoxicity” value is given as “prevent peptide-induced neurotoxicity”. For the same compound, in experiment [1], the “% of MoPrP105-132 co-localised with cPLA2 in squalestatin-treated cells” value is recorded as 13% ± 4. Besides, in experiment [3], the “% of MoPrP105-132 co-localised with CTxB in squalestatin-treated cells” value is recorded as 5% ± 1, the “% of MoPrP105-132 co-localised with GM130 (Golgi) in squalestatin-treated cells” value was 7% ± 2, the “% of MoPrP105-132 co-localised with Grp78 (ER) in squalestatin-treated cells” value is 3% ± 2 and the “% of MoPrP105-132 co-localised with LAMP-1 (lysosomes) in squalestatin-treated cells” value is listed as 40% ± 6. Also, in experiment [3], the “% of MoPrP105-132 co-localised with TfR (early endosomes) in squalestatin-treated cells” value was 68% ± 8 and the “% of MoPrP105-132 co-localised with caveolin-1 in squalestatin-treated cells” value is given as 9% ± 3. In experiment [4], the “membrane fraction in which MoPrP105-132 is found (raft / non-raft) in squalestatin-treated cells” value is listed as “most of the MoPrP105-132 was detected in the non-raft fraction”. For the same compound, the “% of MoPrP105-132 co-localised with COX-1 in squalestatin-treated cells” value in experiment [2] is given as 5% ± 5. Also, the “endosomal fraction in which MoPrP105-132 is detected in squalestatin-treated cells” value in experiment [5] is given as “detected in the LAMP-1 positive, TfR negative, lysosomal fraction”. For the same compound, in experiment [6], the “cell associated fluorescence (mean fluorescence intensity) of ingested MoPrP105-132 in squalestatin treated cells” value stood at 25.3 ± 4 arbitrary units.

For the origin of these results see article PMC2131757 (BMC Neuroscience, 2007).
